Measured values reported in paper PMC10700596 (Nature Communications, 2023).

Legend:
EP4R R316A mutant = target: T1, EP4R R316A mutant (Homo sapiens, UniProt P35408, R316A); test: BRET EP4R-arrestin interaction reporter assay, R316A mutant; type: cell-based; details: agonist mode
T1 construct: expressed in transfected cells; host or cells: HEK cells, transient
Description: three independent experiments. Source data are provided as a Source Data file.
(1 picture or pasted object on this page, not shown here)

EP4R = target: T2, EP4R (Homo sapiens, UniProt P35408); test: PRESTO-Tango β-arrestin2 recruitment assay; type: cell-based; details: agonist
T2 construct: Tango fusion cassette (only 'tango' is printed); expressed in transfected cells; host or cells: HTLA cells (tTA-dependent luciferase reporter, β-arrestin2-TEV fusion)

wild-type EP4R = wild-type EP4R (Homo sapiens, UniProt P35408); test: cell-based
Sequence of wild-type EP4R (P35408 whole entry): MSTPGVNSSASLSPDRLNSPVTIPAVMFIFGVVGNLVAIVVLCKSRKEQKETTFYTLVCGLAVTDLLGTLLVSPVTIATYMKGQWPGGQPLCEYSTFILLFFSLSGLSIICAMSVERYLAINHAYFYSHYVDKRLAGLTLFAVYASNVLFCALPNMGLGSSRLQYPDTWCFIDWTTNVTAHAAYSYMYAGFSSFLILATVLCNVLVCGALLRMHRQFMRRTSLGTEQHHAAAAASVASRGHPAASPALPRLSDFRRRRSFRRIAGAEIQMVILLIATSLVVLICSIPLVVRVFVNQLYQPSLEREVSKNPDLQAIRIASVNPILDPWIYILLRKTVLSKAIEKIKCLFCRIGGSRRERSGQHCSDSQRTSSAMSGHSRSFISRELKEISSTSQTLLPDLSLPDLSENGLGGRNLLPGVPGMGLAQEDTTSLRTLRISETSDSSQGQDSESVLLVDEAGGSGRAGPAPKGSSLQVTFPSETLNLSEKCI

T1 sequence (P35408 whole entry R316A): as the sequence (P35408 whole entry) above, with R316A counted along it
T2 sequence (P35408 whole entry, the tested form may be a part): as the sequence (P35408 whole entry) above

CCCCC[C@H](O)/C=C/[C@H]1[C@H](O)CC(=O)[C@@H]1C/C=C\CCCC(=O)O [PGE2, prostaglandin E2, reference compound]
activation of R316A mutant receptor (EP4R R316A mutant): no longer
EC80 of PGE2 (EP4R): 8 nM
EC80 of PGE2 (wild-type EP4R): 8 nM
